Patent US10266497B2 (ABIDE THERAPEUTICS, INC., priority 2017, dated 2019)
Where two headings read alike, the source gives them in different places.

Assays:
[1] = target: T1, MAGL (Mus musculus, UniProt O35678); experiment: In vitro competitive activity-based protein profiling, MAGL, mouse; conditions: read-out: MAGL % inh. 1 μM (mouse)
T1 sequence (O35678 1-303): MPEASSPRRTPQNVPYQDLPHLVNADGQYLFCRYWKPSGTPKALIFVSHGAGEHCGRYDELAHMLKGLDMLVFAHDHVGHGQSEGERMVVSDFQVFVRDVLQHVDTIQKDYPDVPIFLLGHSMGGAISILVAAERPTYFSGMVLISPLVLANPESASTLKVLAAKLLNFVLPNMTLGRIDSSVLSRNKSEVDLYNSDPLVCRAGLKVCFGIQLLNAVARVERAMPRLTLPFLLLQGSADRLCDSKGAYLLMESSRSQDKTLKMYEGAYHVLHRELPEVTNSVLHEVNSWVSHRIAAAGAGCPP

[2] = target: T2, FAAH (Homo sapiens, UniProt O00519); experiment: In vitro competitive activity-based protein profiling, FAAH, human; conditions: for inhibition at 1 µM: read-out: FAAH % inh. 1 μM (human)
T2 sequence (O00519 1-579): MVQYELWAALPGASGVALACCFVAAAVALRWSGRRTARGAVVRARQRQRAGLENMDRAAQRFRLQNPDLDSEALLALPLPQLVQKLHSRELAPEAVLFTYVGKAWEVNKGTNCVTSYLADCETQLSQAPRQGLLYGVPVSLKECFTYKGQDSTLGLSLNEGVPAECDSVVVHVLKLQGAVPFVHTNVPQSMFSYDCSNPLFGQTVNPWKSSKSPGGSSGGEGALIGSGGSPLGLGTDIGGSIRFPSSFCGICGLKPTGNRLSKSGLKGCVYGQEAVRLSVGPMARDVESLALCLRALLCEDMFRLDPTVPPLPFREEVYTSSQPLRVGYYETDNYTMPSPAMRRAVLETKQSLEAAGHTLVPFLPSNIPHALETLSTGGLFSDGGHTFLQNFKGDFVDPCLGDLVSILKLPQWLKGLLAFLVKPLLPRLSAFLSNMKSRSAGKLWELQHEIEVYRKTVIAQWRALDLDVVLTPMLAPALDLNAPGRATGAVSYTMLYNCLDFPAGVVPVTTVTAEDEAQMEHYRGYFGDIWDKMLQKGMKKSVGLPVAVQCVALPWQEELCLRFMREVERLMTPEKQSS

[3] = target: T3, FAAH (Mus musculus, UniProt O08914); experiment: In vitro competitive activity-based protein profiling, FAAH, mouse; conditions: read-out: FAAH % inh. 1 μM (mouse)
T3 sequence (O08914 1-579): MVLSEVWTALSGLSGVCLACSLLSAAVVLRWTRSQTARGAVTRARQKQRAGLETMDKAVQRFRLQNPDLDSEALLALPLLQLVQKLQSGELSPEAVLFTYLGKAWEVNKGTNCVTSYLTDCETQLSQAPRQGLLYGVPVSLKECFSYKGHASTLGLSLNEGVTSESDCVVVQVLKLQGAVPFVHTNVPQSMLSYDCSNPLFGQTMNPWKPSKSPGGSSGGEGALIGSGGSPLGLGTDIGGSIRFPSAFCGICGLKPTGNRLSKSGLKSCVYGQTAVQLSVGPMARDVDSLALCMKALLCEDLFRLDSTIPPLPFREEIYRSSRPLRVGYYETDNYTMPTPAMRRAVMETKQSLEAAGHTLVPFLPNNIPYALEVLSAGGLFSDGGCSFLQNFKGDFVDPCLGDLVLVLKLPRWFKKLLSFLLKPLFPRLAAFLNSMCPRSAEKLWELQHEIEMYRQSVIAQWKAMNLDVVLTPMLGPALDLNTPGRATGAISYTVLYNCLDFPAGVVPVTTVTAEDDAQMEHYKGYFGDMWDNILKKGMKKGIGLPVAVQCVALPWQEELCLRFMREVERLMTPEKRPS

[4] = target: T1, MAGL; experiment: Mouse brain proteomes from inhibitor treated mice (oral gavage, sacrificed 4 h after administration); format: in vivo; set-up: mouse brain membrane fraction for mouse assays; from tissue; host or cells: mouse brain (membrane fraction in vitro; brain proteomes of treated C57Bl/6J mice in vivo); conditions: 5 mg/kg oral gavage, brain proteome 4 h after administration, read-out: MAGL % inh. 5 mg/kg (mouse)
[5] = target: T3, FAAH; experiment: Mouse brain proteomes from inhibitor treated mice (oral gavage, sacrificed 4 h after administration), FAAH; format: in vivo; set-up: mouse brain membrane fraction for mouse assays; from tissue; host or cells: mouse brain (membrane fraction in vitro; brain proteomes of treated C57Bl/6J mice in vivo); conditions: 5 mg/kg oral gavage, brain proteome 4 h after administration, read-out: FAAH % inh. 5 mg/kg (mouse)
[6] = target: T4, MAGL (Homo sapiens, UniProt Q99685); experiment: In vitro competitive activity-based protein profiling, MAGL, human; conditions: read-out: MAGL % inh. 1 μM (human)
T4 sequence (Q99685 1-303): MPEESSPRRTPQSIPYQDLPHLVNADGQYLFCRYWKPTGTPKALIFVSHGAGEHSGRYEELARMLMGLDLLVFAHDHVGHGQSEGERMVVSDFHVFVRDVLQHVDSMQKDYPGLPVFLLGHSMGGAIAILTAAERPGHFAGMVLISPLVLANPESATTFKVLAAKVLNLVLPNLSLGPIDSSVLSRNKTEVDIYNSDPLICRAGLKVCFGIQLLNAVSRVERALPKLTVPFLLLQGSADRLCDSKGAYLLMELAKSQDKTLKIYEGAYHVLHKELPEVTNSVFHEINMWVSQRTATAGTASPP

| Compound | inhibition at 1 µM [1] [%] | IC50 [2] [µM] | inhibition at 1 µM [3] [%] | inhibition at 5 mg/kg [4] [%] | inhibition at 5 mg/kg [5] [%] | inhibition at 1 µM [6] [%] | inhibition at 1 µM [2] [%] | inhibition at 5 mg/kg ([4]; C57Bl/6J mice) [%] |
| --- | --- | --- | --- | --- | --- | --- | --- | --- |
| CN(Cc1ccc(C(F)(F)F)cc1N1CCOCC1)C1(C)CCN(C(=O)n2ccc(C(=O)O)n2)CC1 [Example 4, 1-(4-Methyl-4-(methyl(2-morpholino-4-(trifluoromethyl)benzyl)amino)piperidine-1-carbonyl)-1H-pyrazole-3-carboxylic Acid] | > 75 | – | 0 to 25 | 0 to 25 | 0 to 25 | > 75 | 0 to 25 | – |
| O=C(O)c1ccn(C(=O)N2CCN(Cc3ccc(C(F)(F)F)cc3N3CCN(C4CC4)CC3)CC2)n1 [Example 6, 1-(4-(2-(4-Cyclopropylpiperazin-1-yl)-4-(trifluoromethyl)benzyl)piperazine-1-carbonyl)-1H-pyrazole-3-carboxylic Acid] | > 75 | – | 0 to 25 | 0 to 25 | 0 to 25 | > 75 | 0 to 25 | – |
| CN(Cc1ccc(C(F)(F)F)cc1-c1nccs1)C1(C)CCN(C(=O)n2ccc(C(=O)O)n2)CC1 [Example 10, 1-(4-methyl-4-(methyl(2-(thiazol-2-yl)-4-(trifluoromethyl)benzyl)amino)piperidine-1-carbonyl)-1H-pyrazole-3-carboxylic Acid] | > 75 | – | 0 to 25 | 0 to 25 | 0 to 25 | > 75 | 0 to 25 | – |
| C[C@H]1CN(Cc2ccc(C(F)(F)F)cc2N2C3CCC2COC3)CCN1C(=O)n1ccc(C(=O)O)n1 [Example 395, 1-((2S)-4-(2-(3-oxa-8-azabicyclo[3.2.1]octan-8-yl)-4-(trifluoromethyl)benzyl)-2-methylpiperazine-1-carbonyl)-1H-pyrazole-3-carboxylic acid] | > 75 | – | – | – | – | > 75 | – | 0 to 25 |
| CN(Cc1ccc(C(F)(F)F)cc1N1CCCCC1)C1(C)CCN(C(=O)n2ccc(C(=O)O)n2)CC1 [Example 397, 1-(4-methyl-4-(methyl(2-(piperidin-1-yl)-4-(trifluoromethyl)benzyl)amino)piper-idine-1-carbonyl)-1H-pyrazole-3-carboxylic acid] | > 75 | – | – | – | – | > 75 | – | 0 to 25 |
| O=C(O)c1ccn(C(=O)N2CCC3(CCCN3Cc3ccc(C(F)(F)F)cc3N3CCCCC3)CC2)n1 [Example 404, 1-(1-(2-(piperidin-1-yl)-4-(trifluoromethyl)benzyl)-1,8-diazaspiro[4.5]decane-8-carbonyl)-1H-pyrazole-3-carboxylic acid] | > 75 | – | – | – | – | > 75 | – | 0 to 25 |
| O=C(O)c1ccn(C(=O)N2CCC3(CCCN3Cc3ccc(C(F)(F)F)cc3N3CCC(F)CC3)CC2)n1 [Example 413, 1-(1-(2-(4-fluoropiperidin-1-yl)-4-(trifluoromethyl)benzyl)-1,8-diazaspiro[4.5]decane-8-carbonyl)-1H-pyrazole-3-carboxylic acid] | > 75 | – | – | – | – | > 75 | – | 0 to 25 |

Second part, the compound after the results:

| inhibition at 1 µM [1] [%] | IC50 [2] [µM] | inhibition at 1 µM [3] [%] | inhibition at 5 mg/kg [4] [%] | inhibition at 5 mg/kg [5] [%] | inhibition at 1 µM [6] [%] | inhibition at 1 µM [2] [%] | inhibition at 5 mg/kg ([4]; C57Bl/6J mice) [%] | Compound |
| --- | --- | --- | --- | --- | --- | --- | --- | --- |
| > 75 | 1 to 10 | 0 to 25 | 0 to 25 | 0 to 25 | – | – | – | O=C(O)c1ccn(C(=O)N2CCN(Cc3ccc(C(F)(F)F)cc3N3CCOCC3)CC2)n1 [Example 3, 1-(4-(2-Morpholino-4-(trifluoromethyl)benzyl)piperazine-1-carbonyl)-1H-pyrazole-3-carboxylic Acid] |
| > 75 | – | 0 to 25 | 0 to 25 | 0 to 25 | > 75 | 0 to 25 | – | O=C(O)c1ccn(C(=O)N2CCN(Cc3ccc(C(F)(F)F)c(N4CCCC4)c3)CC2)n1 [Example 7, 1-(4-(3-(Pyrrolidin-1-yl)-4-(trifluoromethyl)benzyl)piperazine-1-carbonyl)-1H-pyrazole-3-carboxylic Acid] |
| > 75 | – | 0 to 25 | 0 to 25 | 0 to 25 | > 75 | 0 to 25 | – | O=C(O)c1ccn(C(=O)N2CCN(Cc3ccc(C(F)(F)F)c(-c4nccs4)c3)CC2)n1 [Example 8, 1-(4-(3-(Thiazol-2-yl)-4-(trifluoromethyl)benzyl)piperazine-1-carbonyl)-1H-pyrazole-3-carboxylic Acid] |
| > 75 | – | 0 to 25 | 0 to 25 | 0 to 25 | > 75 | 0 to 25 | – | O=C(O)c1ccn(C(=O)N2CCC(Oc3ccc(Cl)cc3N3CCCC3)CC2)n1 [Example 11, 1-(4-(4-Chloro-2-(pyrrolidin-1-yl)phenoxy)piperidine-1-carbonyl)-1H-pyrazole-3-carboxylic Acid] |
| > 75 | – | 0 to 25 | 0 to 25 | 0 to 25 | > 75 | 0 to 25 | – | COC1CCN(c2cc(C(F)(F)F)ccc2CN2CCN(C(=O)n3ccc(C(=O)O)n3)CC2)CC1 [Example 12, 1-(4-(2-(4-Methoxypiperidin-1-yl)-4-(trifluoromethyl)benzyl)piperazine-1-carbonyl)-1H-pyrazole-3-carboxylic Acid] |
| > 75 | – | – | – | – | > 75 | – | 0 to 25 | O=C(O)c1ccn(C(=O)N2CCC3(CCCN3C(=O)c3ccc(C(F)(F)F)cc3N3CCCC3)CC2)n1 [Example 403, 1-(1-(2-(pyrrolidin-1-yl)-4-(trifluoromethyl)benzoyl)-1,8-diazaspiro[4.5]decane-8-carbonyl)-1H-pyrazole-3-carboxylic acid] |
| > 75 | – | – | – | – | > 75 | – | 0 to 25 | CC(C)(O)COc1cccc(O[C@H]2C[C@@H]3CN(C(=O)n4ccc(C(=O)O)n4)C[C@@H]3C2)c1Cl [Example 451, 1-(trans-5-(2-chloro-3-(2-hydroxy-2-methylpropoxy)phenoxy)octahydro-cyclopenta[c]pyrrole-2-carbonyl)-1H-pyrazole-3-carboxylic acid] |
